Test results reported in US8026365B2, “4,4-disubstituted piperidine derivatives” (Hoffman-La Roche Inc., priority 2007, dated 2011).

biological target: T1, human subtype 5 somatostatin receptor (SSTR5) (Homo sapiens, UniProt P35346); test: radioligand replacement (binding) assay, 125I-labeled 11-Tyr somatostatin-14, membranes of CHO cells expressing SSTR5; conditions: membranes of CHO cells stably transfected with human SSTR5; 0.05 nM 125I tracer; Ki calculated from IC50 by Cheng-Prussoff equation
T1 construct: host or cells: CHO cell line, stably transfected; membranes prepared by sonication and centrifugation
Description: A CHO cell line stably transfected with a plasmid encoding the human subtype 5 somatostatin receptor (GenBank accession number D16827) was obtained from Euroscreen. Cells were cultured and used for binding and functional assays.
Membranes of these cells were prepared by sonication in the presence of protease inhibitors and subsequent fractionating centrifugation. The protein concentration in the membrane preparation was determined using a commercial kit (BCA kit, Pierce, USA). Membranes were stored at −80° C. until use. After thawing membranes were diluted in assay buffer (50 mM Tris-HCl at pH 7.4, 5 mM MgCl2 and 0.20% BSA) and subjected to dounce homogenization.
For binding studies, 0.1 mL membrane suspension, corresponding to approximately 6×10^−15 mol receptor, was incubated for 1 h at room temperature with 0.05 nM ^125I-labeled tracer (11-Tyr somatostatin-14, Perkin-Elmer) and either test compounds in varying concentrations or, for the determination of non-specific binding, 0.001 mM non-labeled somatostatin-14. The incubation was stopped by filtration through GF/B glassfiber filters and washing with ice-cold wash buffer (50 mM Tris-HCl at pH 7.4). The bound radioactivity was measured after application of a scintillation cocktail (Microscint 40) and expressed as disintegrations per minute (dpm).
The receptor concentration was determined in a prior saturation experiment where a fixed, arbitrary amount of membranes was incubated with a concentration range of radio-labeled tracer. This allows estimating the total number of specific binding sites per amount of protein (i.e., Bmax), typically between 1 and 5 pmol/mg.
The concentration of the test compound required to result in half maximal inhibition of binding of the radio-labeled tracer (IC50) was estimated from a concentration-versus-dpm graph. The binding affinity (Ki) was calculated from the IC50 by applying the Cheng-Prussoff equation for single binding sites.

T1 sequence (P35346 whole entry): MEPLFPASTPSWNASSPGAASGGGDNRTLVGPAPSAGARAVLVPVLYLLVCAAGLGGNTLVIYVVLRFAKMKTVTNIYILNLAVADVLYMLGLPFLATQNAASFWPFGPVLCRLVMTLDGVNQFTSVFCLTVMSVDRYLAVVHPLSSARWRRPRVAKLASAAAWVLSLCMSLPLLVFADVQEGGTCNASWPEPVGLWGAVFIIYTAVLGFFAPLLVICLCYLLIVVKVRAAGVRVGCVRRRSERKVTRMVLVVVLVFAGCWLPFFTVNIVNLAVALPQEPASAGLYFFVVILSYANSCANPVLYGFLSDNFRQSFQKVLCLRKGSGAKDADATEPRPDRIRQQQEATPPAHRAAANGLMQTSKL

SMILES | Ki [nM]
CCOc1cc(CN2CCC3(CC2)NC(=O)NC3=O)ccc1Cl [Example 2, 8-(4-chloro-3-ethoxy-benzyl)-1,3,8-triaza-spiro[4.5]decane-2,4-dione] | 51
CCOc1cc(CN2CCC3(CC2)CCN(c2ccccc2)C3=O)cc(OCC)c1Cl [Example 11, 8-(4-chloro-3,5-diethoxy-benzyl)-2-phenyl-2,8-diaza-spiro[4.5]decan-1-one] | 228
CCOc1cc(CN2CCC3(CC2)N=C(c2ccccc2)NC3=O)ccc1Cl [Example 17, 8-(4-chloro-3-ethoxy-benzyl)-2-phenyl-1,3,8-triaza-spiro[4.5]dec-1-en-4-one] | 50
CCOc1cc(CN2CCC3(CC2)N=C(c2ccccc2)NC3=O)ccc1OC(F)F [Example 26, 8-(4-difluoromethoxy-3-ethoxy-benzyl)-2-phenyl-1,3,8-triaza-spiro[4.5]dec-1-en-4-one] | 226
COc1ccc(CN2CCC3(CC2)N=C(c2ccccc2)NC3=O)cc1OCCF [Example 29, 8-[3-(2-fluoro-ethoxy)-4-methoxy-benzyl]-2-phenyl-1,3,8-triaza-spiro[4.5]dec-1-en-4-one] | 717
COc1ccc(CN2CCC3(CC2)N=C(c2ccccc2)NC3=O)cc1OC1CCCC1 [Example 33, 8-(3-cyclopentyloxy-4-methoxy-benzyl)-2-phenyl-1,3,8-triaza-spiro[4.5]dec-1-en-4-one] | 273
CCOc1cc(CN2CCC(NC(=O)c3ccc(Cl)cc3)(C(N)=O)CC2)cc(OCC)c1Cl [Example 42, 4-(4-chloro-benzoylamino)-1-(4-chloro-3,5-diethoxy-benzyl)-piperidine-4-carboxylic acid amide] | 96
CCOc1cc(CN2CCC(C#N)(NC(=O)c3cncc(C)c3)CC2)cc(OCC)c1F [Example 44, N-[4-cyano-1-(3,5-diethoxy-4-fluoro-benzyl)-piperidin-4-yl]-5-methyl-nicotinamide] | 342
CCOc1cc(CN2CCC(C#N)(NC(=O)c3ccc(Cl)nc3)CC2)cc(OCC)c1-c1ccc(F)cc1 [Example 46, 6-chloro-N-[4-cyano-1-(2,6-diethoxy-4′-fluoro-biphenyl-4-ylmethyl)-piperidin-4-yl]-nicotinamide] | 66

Now those with a lower Ki, led by results:

Ki [nM] | SMILES
42 | CCOc1cc(CN2CCC3(CC2)NC(=O)NC3=O)cc(OCC)c1Cl [Example 5, 8-(4-chloro-3,5-diethoxy-benzyl)-1,3,8-triaza-spiro[4.5]decane-2,4-dione]
15 | CCOc1cc(CN2CCC3(CC2)NC(=O)NC3=O)cc(OCC)c1-n1cccc1 [Example 7, 8-(3,5-diethoxy-4-pyrrol-1-yl-benzyl)-1,3,8-triaza-spiro[4.5]decane-2,4-dione]
37 | CCOc1cc(CN2CCC3(CC2)N=C(c2ccccc2)NC3=O)ccc1C [Example 15, 8-(3-ethoxy-4-methyl-benzyl)-2-phenyl-1,3,8-triaza-spiro[4.5]dec-1-en-4-one]
18 | CCOc1cc(CN2CCC3(CC2)N=C(c2ccccc2)NC3=O)cc(OCC)c1Br [Example 38, 8-(4-bromo-3,5-diethoxy-benzyl)-2-phenyl-1,3,8-triaza-spiro[4.5]dec-1-en-4-one]
